Reference: ChEMBL document CHEMBL2010741, “Synthesis and evaluation of a new series of 1'-cyclobutyl-6-(4-piperidyloxy)spiro[benzopyran-2,4'-piperidine] derivatives as high affinity and selective histamine-3 receptor (H3R) antagonists” (Bioorg Med Chem Lett, 2012)

Molecular target: T1, Histamine H3 receptor (Homo sapiens, UniProt Q9Y5N1)
Experiment: Displacement of [3H]-N-alpha-methylhistamine from human cloned histamine H3 receptor expressed in CHO cells
Type: cell-based
Conditions: not given

T1 sequence (Q9Y5N1 whole entry): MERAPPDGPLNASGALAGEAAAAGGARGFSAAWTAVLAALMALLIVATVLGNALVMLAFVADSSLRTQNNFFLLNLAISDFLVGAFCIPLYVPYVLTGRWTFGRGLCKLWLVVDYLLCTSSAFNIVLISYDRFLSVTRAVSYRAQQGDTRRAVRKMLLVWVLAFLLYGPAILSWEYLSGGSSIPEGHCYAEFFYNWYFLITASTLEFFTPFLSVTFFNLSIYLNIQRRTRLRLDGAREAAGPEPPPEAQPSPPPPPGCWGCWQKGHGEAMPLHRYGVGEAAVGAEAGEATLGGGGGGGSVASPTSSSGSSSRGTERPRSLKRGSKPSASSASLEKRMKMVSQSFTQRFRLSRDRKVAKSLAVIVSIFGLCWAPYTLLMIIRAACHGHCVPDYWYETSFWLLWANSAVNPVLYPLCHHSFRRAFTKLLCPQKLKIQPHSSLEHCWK

Row | Compound | Ki
1 | CC(C)S(=O)(=O)N1CCC(Oc2ccc3c(c2)CCC2(CCN(C4CCC4)CC2)O3)CC1 | 0.007 µM
2 | Oc1ccc2c(c1)CCC1(CCN(C3CCC3)CC1)O2 | > 3 µM
3 | O=S(=O)(C1CC1)N1CCC(Oc2ccc3c(c2)CCC2(CCN(C4CCC4)CC2)O3)CC1 | 0.009 µM
4 | CS(=O)(=O)N1CCC(Oc2ccc3c(c2)CCC2(CCN(C4CCC4)CC2)O3)CC1 | 0.007 µM
5 | CC(C)C(=O)N1CCC(Oc2ccc3c(c2)CCC2(CCN(C4CCC4)CC2)O3)CC1 | 0.002 µM

Molecular target: Histamine H3 receptor (Rattus norvegicus, UniProt Q9QYN8)
Sequence (Q9QYN8 whole entry): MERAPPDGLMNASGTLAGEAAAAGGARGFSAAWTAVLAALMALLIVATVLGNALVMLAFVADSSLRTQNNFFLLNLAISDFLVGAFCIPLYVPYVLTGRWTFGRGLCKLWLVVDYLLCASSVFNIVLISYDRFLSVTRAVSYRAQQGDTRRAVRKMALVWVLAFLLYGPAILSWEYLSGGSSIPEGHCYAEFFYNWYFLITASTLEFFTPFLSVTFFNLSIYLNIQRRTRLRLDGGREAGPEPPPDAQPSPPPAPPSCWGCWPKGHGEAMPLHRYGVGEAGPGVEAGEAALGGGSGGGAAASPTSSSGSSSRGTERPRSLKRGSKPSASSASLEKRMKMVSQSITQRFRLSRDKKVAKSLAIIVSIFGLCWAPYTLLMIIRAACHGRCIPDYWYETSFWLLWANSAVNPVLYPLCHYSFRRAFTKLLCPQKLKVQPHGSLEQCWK
Experiment: Displacement of [3H]N-alpha-methylhistamine from rat cloned histamine H3 receptor expressed in CHO cells
Type: cell-based
Conditions: not given

Row | Compound | Ki
6 | CC(C)S(=O)(=O)N1CCC(Oc2ccc3c(c2)CCC2(CCN(C4CCC4)CC2)O3)CC1 | 0.027 µM
7 | Oc1ccc2c(c1)CCC1(CCN(C3CCC3)CC1)O2 | > 3 µM
8 | O=S(=O)(C1CC1)N1CCC(Oc2ccc3c(c2)CCC2(CCN(C4CCC4)CC2)O3)CC1 | 0.018 µM
9 | CS(=O)(=O)N1CCC(Oc2ccc3c(c2)CCC2(CCN(C4CCC4)CC2)O3)CC1 | 0.017 µM
10 | CC(C)C(=O)N1CCC(Oc2ccc3c(c2)CCC2(CCN(C4CCC4)CC2)O3)CC1 | 0.006 µM

Test system: not listed separately
Experiment: Half life in mouse liver microsomes
Type: ADME, Microsome
Conditions: not given

Row | Compound | half-life
11 | O=S(=O)(C1CC1)N1CCC(Oc2ccc3c(c2)CCC2(CCN(C4CCC4)CC2)O3)CC1 | > 40 min
12 | CS(=O)(=O)N1CCC(Oc2ccc3c(c2)CCC2(CCN(C4CCC4)CC2)O3)CC1 | > 40 min
13 | CC(C)C(=O)N1CCC(Oc2ccc3c(c2)CCC2(CCN(C4CCC4)CC2)O3)CC1 | > 40 min

Test system: not listed separately
Experiment: Half life in rat liver microsomes
Type: ADME, Microsome
Conditions: not given

Row | Compound | half-life
14 | O=S(=O)(C1CC1)N1CCC(Oc2ccc3c(c2)CCC2(CCN(C4CCC4)CC2)O3)CC1 | > 40 min
15 | CS(=O)(=O)N1CCC(Oc2ccc3c(c2)CCC2(CCN(C4CCC4)CC2)O3)CC1 | > 40 min
16 | CC(C)C(=O)N1CCC(Oc2ccc3c(c2)CCC2(CCN(C4CCC4)CC2)O3)CC1 | > 40 min

Test system: not listed separately
Experiment: Half life in dog liver microsomes
Type: ADME, Canis lupus familiaris, Microsome
Conditions: not given

Row | Compound | half-life
17 | O=S(=O)(C1CC1)N1CCC(Oc2ccc3c(c2)CCC2(CCN(C4CCC4)CC2)O3)CC1 | > 40 min
18 | CS(=O)(=O)N1CCC(Oc2ccc3c(c2)CCC2(CCN(C4CCC4)CC2)O3)CC1 | > 40 min
19 | CC(C)C(=O)N1CCC(Oc2ccc3c(c2)CCC2(CCN(C4CCC4)CC2)O3)CC1 | > 40 min

Test system: not listed separately
Experiment: Half life in human liver microsomes
Type: ADME, Microsome
Conditions: not given

Row | Compound | half-life
20 | O=S(=O)(C1CC1)N1CCC(Oc2ccc3c(c2)CCC2(CCN(C4CCC4)CC2)O3)CC1 | > 40 min
21 | CS(=O)(=O)N1CCC(Oc2ccc3c(c2)CCC2(CCN(C4CCC4)CC2)O3)CC1 | > 40 min
22 | CC(C)C(=O)N1CCC(Oc2ccc3c(c2)CCC2(CCN(C4CCC4)CC2)O3)CC1 | > 40 min

Molecular target: T2, Cytochrome P450 1A2 (Homo sapiens, UniProt P05177)
T2 sequence (P05177 whole entry): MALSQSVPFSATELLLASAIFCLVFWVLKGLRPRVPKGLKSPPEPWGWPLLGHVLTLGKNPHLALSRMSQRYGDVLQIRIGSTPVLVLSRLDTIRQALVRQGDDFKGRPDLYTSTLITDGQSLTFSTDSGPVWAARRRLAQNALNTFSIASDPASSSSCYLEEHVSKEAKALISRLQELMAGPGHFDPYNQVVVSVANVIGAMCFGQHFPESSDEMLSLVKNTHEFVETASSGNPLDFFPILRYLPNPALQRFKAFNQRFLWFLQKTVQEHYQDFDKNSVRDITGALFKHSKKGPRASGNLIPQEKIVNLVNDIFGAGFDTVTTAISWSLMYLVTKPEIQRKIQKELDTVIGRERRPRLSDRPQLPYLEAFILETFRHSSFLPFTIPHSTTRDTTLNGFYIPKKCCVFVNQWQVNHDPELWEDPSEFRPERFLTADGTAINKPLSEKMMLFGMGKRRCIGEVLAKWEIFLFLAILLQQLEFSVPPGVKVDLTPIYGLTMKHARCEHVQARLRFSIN
Experiment: Inhibition of CYP1A2
Type: ADME
Conditions: not given

Row | Compound | IC50
23 | O=S(=O)(C1CC1)N1CCC(Oc2ccc3c(c2)CCC2(CCN(C4CCC4)CC2)O3)CC1 | > 30 µM
24 | CS(=O)(=O)N1CCC(Oc2ccc3c(c2)CCC2(CCN(C4CCC4)CC2)O3)CC1 | > 30 µM
25 | CC(C)C(=O)N1CCC(Oc2ccc3c(c2)CCC2(CCN(C4CCC4)CC2)O3)CC1 | > 30 µM

Molecular target: Cytochrome P450 2C9 (Homo sapiens, UniProt P11712)
Sequence (P11712 whole entry): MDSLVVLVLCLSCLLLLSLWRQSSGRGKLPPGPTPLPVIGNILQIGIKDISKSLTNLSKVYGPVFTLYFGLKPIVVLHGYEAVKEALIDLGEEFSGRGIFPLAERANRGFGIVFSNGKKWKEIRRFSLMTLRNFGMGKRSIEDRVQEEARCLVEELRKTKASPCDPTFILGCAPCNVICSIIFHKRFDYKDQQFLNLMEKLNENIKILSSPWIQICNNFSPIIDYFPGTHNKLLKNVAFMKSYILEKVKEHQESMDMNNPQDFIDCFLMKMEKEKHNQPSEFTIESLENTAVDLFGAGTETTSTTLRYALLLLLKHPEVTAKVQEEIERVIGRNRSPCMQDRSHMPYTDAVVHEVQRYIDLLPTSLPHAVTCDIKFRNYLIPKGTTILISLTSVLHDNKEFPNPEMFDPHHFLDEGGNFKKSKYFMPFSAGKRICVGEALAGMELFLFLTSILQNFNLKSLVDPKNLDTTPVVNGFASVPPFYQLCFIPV
Experiment: Inhibition of CYP2C9
Type: ADME
Conditions: not given

Row | Compound | IC50
26 | O=S(=O)(C1CC1)N1CCC(Oc2ccc3c(c2)CCC2(CCN(C4CCC4)CC2)O3)CC1 | > 30 µM
27 | CS(=O)(=O)N1CCC(Oc2ccc3c(c2)CCC2(CCN(C4CCC4)CC2)O3)CC1 | > 30 µM
28 | CC(C)C(=O)N1CCC(Oc2ccc3c(c2)CCC2(CCN(C4CCC4)CC2)O3)CC1 | > 30 µM

Molecular target: Cytochrome P450 2C19 (Homo sapiens, UniProt P33261)
Sequence (P33261 whole entry): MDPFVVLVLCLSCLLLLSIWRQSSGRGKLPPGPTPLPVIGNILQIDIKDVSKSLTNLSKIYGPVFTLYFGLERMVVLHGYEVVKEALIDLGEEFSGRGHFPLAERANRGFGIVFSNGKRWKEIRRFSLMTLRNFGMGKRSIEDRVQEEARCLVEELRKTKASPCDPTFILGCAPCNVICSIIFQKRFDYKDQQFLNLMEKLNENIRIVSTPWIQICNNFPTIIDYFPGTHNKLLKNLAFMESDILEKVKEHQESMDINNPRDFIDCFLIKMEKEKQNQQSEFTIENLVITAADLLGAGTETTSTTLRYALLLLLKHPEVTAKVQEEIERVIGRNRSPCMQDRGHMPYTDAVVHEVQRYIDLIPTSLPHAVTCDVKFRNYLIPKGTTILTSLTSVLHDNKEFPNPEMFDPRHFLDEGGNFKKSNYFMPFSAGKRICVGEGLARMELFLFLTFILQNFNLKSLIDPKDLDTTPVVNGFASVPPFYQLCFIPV
Experiment: Inhibition of CYP2C19
Type: ADME
Conditions: not given

Row | Compound | IC50
29 | O=S(=O)(C1CC1)N1CCC(Oc2ccc3c(c2)CCC2(CCN(C4CCC4)CC2)O3)CC1 | > 30 µM
30 | CS(=O)(=O)N1CCC(Oc2ccc3c(c2)CCC2(CCN(C4CCC4)CC2)O3)CC1 | > 30 µM
31 | CC(C)C(=O)N1CCC(Oc2ccc3c(c2)CCC2(CCN(C4CCC4)CC2)O3)CC1 | > 30 µM

Molecular target: Cytochrome P450 2D6 (Homo sapiens, UniProt P10635)
Sequence (P10635 whole entry): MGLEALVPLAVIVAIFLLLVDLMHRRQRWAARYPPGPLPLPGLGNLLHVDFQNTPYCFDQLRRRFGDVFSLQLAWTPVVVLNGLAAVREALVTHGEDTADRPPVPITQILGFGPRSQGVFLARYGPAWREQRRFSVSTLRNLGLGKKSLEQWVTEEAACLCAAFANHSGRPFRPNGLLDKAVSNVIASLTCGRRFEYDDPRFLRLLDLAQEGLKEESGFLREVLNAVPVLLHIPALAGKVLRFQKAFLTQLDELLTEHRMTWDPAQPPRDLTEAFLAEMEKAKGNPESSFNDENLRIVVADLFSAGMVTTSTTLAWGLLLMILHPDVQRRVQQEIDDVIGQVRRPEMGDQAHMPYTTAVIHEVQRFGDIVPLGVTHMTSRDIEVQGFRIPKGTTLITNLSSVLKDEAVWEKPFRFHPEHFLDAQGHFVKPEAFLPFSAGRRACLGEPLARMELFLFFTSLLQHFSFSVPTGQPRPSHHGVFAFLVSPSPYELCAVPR
Experiment: Inhibition of CYP2D6
Type: ADME
Conditions: not given

Row | Compound | IC50
32 | O=S(=O)(C1CC1)N1CCC(Oc2ccc3c(c2)CCC2(CCN(C4CCC4)CC2)O3)CC1 | > 30 µM
33 | CS(=O)(=O)N1CCC(Oc2ccc3c(c2)CCC2(CCN(C4CCC4)CC2)O3)CC1 | 18 µM
34 | CC(C)C(=O)N1CCC(Oc2ccc3c(c2)CCC2(CCN(C4CCC4)CC2)O3)CC1 | > 30 µM

Molecular target: Cytochrome P450 3A4 (Homo sapiens, UniProt P08684)
Sequence (P08684 whole entry): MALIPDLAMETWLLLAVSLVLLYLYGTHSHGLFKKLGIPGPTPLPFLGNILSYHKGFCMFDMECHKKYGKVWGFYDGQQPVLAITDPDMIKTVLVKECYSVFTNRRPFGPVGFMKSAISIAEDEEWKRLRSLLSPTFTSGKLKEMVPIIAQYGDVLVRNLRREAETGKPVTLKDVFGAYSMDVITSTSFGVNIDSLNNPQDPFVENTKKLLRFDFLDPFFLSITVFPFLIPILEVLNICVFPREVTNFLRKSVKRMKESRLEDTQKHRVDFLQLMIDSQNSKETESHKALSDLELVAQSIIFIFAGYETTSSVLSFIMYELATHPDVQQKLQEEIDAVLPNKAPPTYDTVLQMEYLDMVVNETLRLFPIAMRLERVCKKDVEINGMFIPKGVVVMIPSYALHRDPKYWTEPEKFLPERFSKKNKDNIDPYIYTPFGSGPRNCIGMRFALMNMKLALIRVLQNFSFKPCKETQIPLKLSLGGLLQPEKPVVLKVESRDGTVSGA
Experiment: Inhibition of CYP3A4
Type: ADME
Conditions: not given

Row | Compound | IC50
35 | O=S(=O)(C1CC1)N1CCC(Oc2ccc3c(c2)CCC2(CCN(C4CCC4)CC2)O3)CC1 | > 30 µM
36 | CS(=O)(=O)N1CCC(Oc2ccc3c(c2)CCC2(CCN(C4CCC4)CC2)O3)CC1 | > 30 µM
37 | CC(C)C(=O)N1CCC(Oc2ccc3c(c2)CCC2(CCN(C4CCC4)CC2)O3)CC1 | > 30 µM

Molecular target: Histamine H1 receptor (Homo sapiens) (UniProt P35367)
Sequence (P35367 whole entry): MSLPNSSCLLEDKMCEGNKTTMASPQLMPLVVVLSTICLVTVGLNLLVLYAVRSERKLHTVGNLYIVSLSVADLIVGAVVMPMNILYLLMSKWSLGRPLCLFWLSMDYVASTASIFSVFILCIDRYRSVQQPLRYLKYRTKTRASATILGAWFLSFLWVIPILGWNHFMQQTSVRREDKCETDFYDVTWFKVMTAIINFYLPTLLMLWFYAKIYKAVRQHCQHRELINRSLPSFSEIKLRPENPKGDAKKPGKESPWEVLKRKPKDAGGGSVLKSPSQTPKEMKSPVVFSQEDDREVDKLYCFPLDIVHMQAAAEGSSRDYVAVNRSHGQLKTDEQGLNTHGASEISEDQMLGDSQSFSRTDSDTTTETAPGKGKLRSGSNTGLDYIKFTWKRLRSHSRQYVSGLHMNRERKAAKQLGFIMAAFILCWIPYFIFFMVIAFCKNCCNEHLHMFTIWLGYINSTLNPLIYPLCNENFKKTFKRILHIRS
Experiment: Inhibition of human H1 receptor at 10 uM
Conditions: not given

Row | Compound | inhibition
38 | CS(=O)(=O)N1CCC(Oc2ccc3c(c2)CCC2(CCN(C4CCC4)CC2)O3)CC1 | < 20%

Molecular target: Histamine H2 receptor (Homo sapiens) (UniProt P25021)
Sequence (P25021 whole entry): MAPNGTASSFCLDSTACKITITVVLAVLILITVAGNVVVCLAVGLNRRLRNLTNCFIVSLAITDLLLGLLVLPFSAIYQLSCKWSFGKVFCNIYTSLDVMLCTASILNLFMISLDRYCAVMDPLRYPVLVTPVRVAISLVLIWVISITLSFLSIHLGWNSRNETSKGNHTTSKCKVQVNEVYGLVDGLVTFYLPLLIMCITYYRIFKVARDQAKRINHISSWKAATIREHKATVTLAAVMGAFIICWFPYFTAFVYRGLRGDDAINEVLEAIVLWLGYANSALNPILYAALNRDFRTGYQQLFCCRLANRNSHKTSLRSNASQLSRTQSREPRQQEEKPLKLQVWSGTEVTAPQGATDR
Experiment: Inhibition of human H2 receptor at 10 uM
Conditions: not given

Row | Compound | inhibition
39 | CS(=O)(=O)N1CCC(Oc2ccc3c(c2)CCC2(CCN(C4CCC4)CC2)O3)CC1 | < 20%

Molecular target: Histamine H4 receptor (Homo sapiens) (UniProt Q9H3N8)
Sequence (Q9H3N8 whole entry): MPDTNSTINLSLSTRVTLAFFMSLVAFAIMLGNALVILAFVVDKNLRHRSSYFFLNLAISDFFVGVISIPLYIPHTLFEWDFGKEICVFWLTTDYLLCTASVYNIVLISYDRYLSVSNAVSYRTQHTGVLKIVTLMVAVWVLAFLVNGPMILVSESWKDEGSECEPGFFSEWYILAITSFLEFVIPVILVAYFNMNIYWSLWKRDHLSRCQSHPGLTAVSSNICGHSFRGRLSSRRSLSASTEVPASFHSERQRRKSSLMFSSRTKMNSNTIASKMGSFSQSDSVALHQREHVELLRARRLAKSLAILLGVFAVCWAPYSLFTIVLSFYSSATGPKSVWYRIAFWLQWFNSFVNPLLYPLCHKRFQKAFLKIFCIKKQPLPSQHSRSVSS
Experiment: Inhibition of human H4 receptor at 10 uM
Conditions: not given

Row | Compound | inhibition
40 | CS(=O)(=O)N1CCC(Oc2ccc3c(c2)CCC2(CCN(C4CCC4)CC2)O3)CC1 | < 20%

Test system: not listed separately
Experiment: Half life in rat at 1 mg/kg, iv
Type: ADME, organism-based
Set-up: dose 1 mg/kg, route intravenous
Conditions: in vivo

Row | Compound | half-life
41 | O=S(=O)(C1CC1)N1CCC(Oc2ccc3c(c2)CCC2(CCN(C4CCC4)CC2)O3)CC1 | 108 min
42 | CS(=O)(=O)N1CCC(Oc2ccc3c(c2)CCC2(CCN(C4CCC4)CC2)O3)CC1 | 36 min
43 | CC(C)C(=O)N1CCC(Oc2ccc3c(c2)CCC2(CCN(C4CCC4)CC2)O3)CC1 | 66 min

Test system: not listed separately
Experiment: Volume of distribution in rat at 1 mg/kg, iv
Type: ADME, organism-based
Set-up: dose 1 mg/kg, route intravenous
Conditions: in vivo

Row | Compound | Vd
44 | O=S(=O)(C1CC1)N1CCC(Oc2ccc3c(c2)CCC2(CCN(C4CCC4)CC2)O3)CC1 | 1.6 L/kg
45 | CS(=O)(=O)N1CCC(Oc2ccc3c(c2)CCC2(CCN(C4CCC4)CC2)O3)CC1 | 0.5 L/kg
46 | CC(C)C(=O)N1CCC(Oc2ccc3c(c2)CCC2(CCN(C4CCC4)CC2)O3)CC1 | 1.9 L/kg

Test system: not listed separately
Experiment: Clearance in rat at 1 mg/kg, iv
Type: ADME, organism-based
Set-up: dose 1 mg/kg, route intravenous
Conditions: in vivo

Row | Compound | clearance
47 | O=S(=O)(C1CC1)N1CCC(Oc2ccc3c(c2)CCC2(CCN(C4CCC4)CC2)O3)CC1 | 10 mL/min/kg
48 | CS(=O)(=O)N1CCC(Oc2ccc3c(c2)CCC2(CCN(C4CCC4)CC2)O3)CC1 | 9 mL/min/kg
49 | CC(C)C(=O)N1CCC(Oc2ccc3c(c2)CCC2(CCN(C4CCC4)CC2)O3)CC1 | 18 mL/min/kg

Test system: not listed separately
Experiment: AUC (infinity) in rat at 5 mg/kg, po
Type: ADME, organism-based
Set-up: time infinity, dose 5 mg/kg, route oral
Conditions: plasma

Row | Compound | AUC(0-inf)
50 | O=S(=O)(C1CC1)N1CCC(Oc2ccc3c(c2)CCC2(CCN(C4CCC4)CC2)O3)CC1 | 435 ng·h/mL
51 | CS(=O)(=O)N1CCC(Oc2ccc3c(c2)CCC2(CCN(C4CCC4)CC2)O3)CC1 | 392 ng·h/mL
52 | CC(C)C(=O)N1CCC(Oc2ccc3c(c2)CCC2(CCN(C4CCC4)CC2)O3)CC1 | 410 ng·h/mL

Test system: not listed separately
Experiment: Cmax in rat at 5 mg/kg, po
Type: ADME, organism-based
Set-up: dose 5 mg/kg, route oral
Conditions: in vivo

Row | Compound | Cmax
53 | O=S(=O)(C1CC1)N1CCC(Oc2ccc3c(c2)CCC2(CCN(C4CCC4)CC2)O3)CC1 | 76 ng/mL
54 | CS(=O)(=O)N1CCC(Oc2ccc3c(c2)CCC2(CCN(C4CCC4)CC2)O3)CC1 | 83 ng/mL
55 | CC(C)C(=O)N1CCC(Oc2ccc3c(c2)CCC2(CCN(C4CCC4)CC2)O3)CC1 | 80 ng/mL

Test system: not listed separately
Experiment: Oral bioavailability in rat at 5 mg/kg
Type: ADME, organism-based
Conditions: in vivo

Row | Compound | bioavailability
56 | O=S(=O)(C1CC1)N1CCC(Oc2ccc3c(c2)CCC2(CCN(C4CCC4)CC2)O3)CC1 | 5%
57 | CS(=O)(=O)N1CCC(Oc2ccc3c(c2)CCC2(CCN(C4CCC4)CC2)O3)CC1 | 4%
58 | CC(C)C(=O)N1CCC(Oc2ccc3c(c2)CCC2(CCN(C4CCC4)CC2)O3)CC1 | 9%

Test system: not listed separately
Experiment: Ratio of drug level in brain to plasma of rat at 10 mg/kg, ip after 1 hr
Type: ADME, organism-based
Set-up: dose 10 mg/kg, route intraperitoneal
Conditions: read-out: BPR

Row | Compound | Kp at 1 h
59 | O=S(=O)(C1CC1)N1CCC(Oc2ccc3c(c2)CCC2(CCN(C4CCC4)CC2)O3)CC1 | 2
60 | CS(=O)(=O)N1CCC(Oc2ccc3c(c2)CCC2(CCN(C4CCC4)CC2)O3)CC1 | 1.5
61 | CC(C)C(=O)N1CCC(Oc2ccc3c(c2)CCC2(CCN(C4CCC4)CC2)O3)CC1 | 2.3

Test system: not listed separately
Experiment: Aqueous solubility of the compound at pH 7.4
Type: physicochemical
Conditions: buffer

Row | Compound | solubility
62 | O=S(=O)(C1CC1)N1CCC(Oc2ccc3c(c2)CCC2(CCN(C4CCC4)CC2)O3)CC1 | > 100 µg/mL
63 | CS(=O)(=O)N1CCC(Oc2ccc3c(c2)CCC2(CCN(C4CCC4)CC2)O3)CC1 | > 100 µg/mL
64 | CC(C)C(=O)N1CCC(Oc2ccc3c(c2)CCC2(CCN(C4CCC4)CC2)O3)CC1 | > 100 µg/mL

Molecular target: T1, Histamine H3 receptor
Conditions: CHO, 10 uM

Row | Compound | inhibition
65 | Oc1ccc2c(c1)CCC1(CCN(C3CCC3)CC1)O2 | 50%

Molecular target: Histamine H3 receptor (Rattus norvegicus) (UniProt Q9QYN8)
Sequence (Q9QYN8 whole entry): as the sequence (Q9QYN8 whole entry) above
Conditions: CHO, 10 uM

Row | Compound | inhibition
66 | Oc1ccc2c(c1)CCC1(CCN(C3CCC3)CC1)O2 | 50%
